“And” between values parts separate entries of the source, which are not always exact repeats. Equal entries are not always repeated.
How the values were obtained:
[1] = system: BalbC mice; assay: Polycation-induced bronchial hyper-reactivity (Penh, plethysmography) in methacholine-challenged conscious mice; type: in vivo, mouse; settings: nebulised 3 μM; poly-L-arginine 3 μM; methacholine challenge
Description: FIG. 5. […] prevent polycation-evoked BHR in methacholine-challenged mice. […] After the treatment, animals were placed in plethysmography chambers (Buxco, USA), allowed to settle for 10 minutes, and then they were challenged with methacholine (MCh, 0.1-10 mg/ml). Responses to methacholine obtained from the animals that have not received any treatments are shown in black symbols. From our previous estimates, 1-5% of the nebulised drug reaches the lung epithelium. […] FIG. 12. […] Male BalbC mice ( 25 g) were purchased from Harlan 1 week before the experimental protocols were performed. […] On the day of the experiment, the body weight of each mouse was recorded and mice were allowed to acclimatise to the chamber for at least 10 min before recordings were made. Then, respiratory activity was recorded for 5 min, to establish baseline value for Penh. […] Data were recorded for 3 minutes after each aerosol administration. The Penh values at each MCh concentration were averaged and expressed as a proportion of baseline Penh (Penh before treatment). […] The Penh values at each MCh concentration were averaged and expressed as a proportion of that day's baseline Penh (Penh after treatment). […] Effect of Polycations and of the Calcilytic NPS89636 on Bronchial Hyper-Reactivity in Unrestrained, Conscious Mice In Vivo Baseline airway hyper-responsiveness was measured by plethysmography. […]

[2] = Plasma ionised Ca2+ in BalbC mice after nebulised calcilytic treatment; type: in vivo, mouse
Description: Table 1. […] At the end of the experiment, bloods were collected via opening the carotid artery. Bloods were allowed to clot for 2-3 hours and spun down at 3000 g for 10 min at 4° C. Collected samples were analysed for measurements of Ca^2+o (performed by the Biochemistry department, University Hospital of Wales). […] Accordingly, the treatment is not detrimental in mammals.

[3] = system: mouse intralobular bronchi; assay: Wire myography: effect of calcilytic on ACh-precontracted mouse intralobular bronchi; settings: 300 nM or 3 micromolar; ACh 1 micromolar precontraction; WT mice
Description: Second/third order intralobular bronchi were dissected from the lung left lobe of WT or CaSR KO mice, mounted in small vessel myograph. Bronchi were gradually stretched to reach 2 mN of passive tension. After 30 min of equilibration time, the reactivity of the bronchi was tested by addition of 40 mM KCl to the bath. […] Data are shown as mean±SEM percentage change from baseline. […] Bronchi were left to settle at 37° C. for 30 min, then gradually stretched to reach 2 mN of passive tension. After 30 min of equilibration time, the reactivity of the bronchi was tested by addition of 40 mM KCl to the bath.

[4] = Plasma ionised Ca2+ in guinea pigs after nebulised calcilytic treatment; type: in vivo, guinea pig
From the text: Table 2. […] Accordingly, the treatment is not detrimental in mammals.

[5] = 24 hours after nebulised calcilytic, single animals, hydrochloride

Plasma ionised Ca++, Treatment (1 hour), individual animal ([2]; 1 hour after nebulised calcilytic, single animals, hydrochloride): 0.69 mM/L and 0.88 mM/L and 0.95 mM/L
Plasma ionised Ca++, Treatment (1 hour), Average ([2]; 1 hour, average of 3): 0.84 mM/L
Plasma ionised Ca++, Treatment (4 hours), individual animal ([2]; 4 hours after nebulised calcilytic, single animals, hydrochloride): 0.98 mM/L and 0.94 mM/L and 0.96 mM/L
Plasma ionised Ca++, Treatment (4 hours), Average ([2]; 4 hours, average of 3): 0.96 mM/L
Plasma ionised Ca++, Treatment (24 hours), individual animal [2, 5]: 1.09 mM/L and 1.1 mM/L and 0.93 mM/L
Plasma ionised Ca++, Treatment (24 hours), Average ([2]; 24 hours, average of 3): 1.04 mM/L
Plasma ionised Ca++, Treatment (24 hours), Average ([4]; 24 hours, average of 6): 1.53 mM/L
SMILES: CCc1ccc(CC(C)(C)NCC(O)COc2cc(-c3ccc(C(=O)O)cc3)ccc2C#N)c(F)c1.Cl (stereo in doubt) [NPS89636, (S)-4′-cyano-3′-[3-[2-(4-ethyl-2-fluorophenyl)-1,1-dimethylethylamino]-2-hydroxy-propoxy]-biphenyl-4-carboxylic acid hydrochloride]
Effect on poly-L-arginine-induced increase in airway reactivity (Penh) [1]: completely prevented
Relaxation of acetylcholine-preconstricted intralobular bronchi [3]: mild relaxation
Plasma ionised Ca++, Treatment (24 hours), individual animal [4, 5]: 1.55 mM/L (2×) and 1.54 mM/L and 1.77 mM/L and 1.58 mM/L and 1.2 mM/L
